Measurements taken from patent US10556945B2, “Antagonist antibodies directed against calcitonin gene-related peptide and methods using same” (Teva Pharmaceuticals International GmbH, priority 2014, dated 2020).
Marks after values point to notes of the source that are not given here. Values belong to the molecule of their own block, whether it stands above or below them.

Key:
chronic migraine = test: Clinical study of antibody G1 in chronic migraine
[1] = tested on: middle meningeal artery (MMA) dilation evoked by electrical field stimulation; test: Dural artery (closed cranial window) assay; assay type: in vivo, rat
Protocol: Closed Cranial Window Model: The purpose of this experiment was to determine the acute effect of anti-CGRP antagonist antibodies and compare it with the acute effect of the CGRP receptor antagonist BIBN4096BS. Experiments were carried out as previously described (Williamson et al., Cephalalgia 17(4):518-24 (1997)) with the following modifications. Sprague Dawley rats (300-400 g) were anesthetized with 70 mg/kg i.p. pentobarbital. Anesthesia was maintained with 20 mg/kg/hr i.v. pentobarbital. Rats were cannulated through the jugular vein for delivery of all drugs. Blood pressure was monitored with a probe (mikro-tip catheter, Millar Instruments) threaded through the femoral artery into the abdominal aorta. The rats were tracheotomized and breathing rate was maintained at 75 breaths per minute at a volume of 3.5 mL. After fixating the head in a stereotactic instrument and removing the scalp, a 2×6 mm window in the left parietal area just lateral to the sagittal suture was made by thinning the bone with a dental drill. Using a micromanipulator, a platinum bipolar electrode was lowered onto the surface and covered with heavy mineral oil. Lateral to the electrode window another window of 5×6 mm was created and filled with heavy mineral oil through which the diameter of a branch of the middle meningeal artery (MMA) was continuously monitored with a CCD camera and a video dimension analyzer (Living Systems). The rats were rested for no less than 45 minutes after the preparation. A baseline response to electrical stimulation was established (15 V, 10 hz, 0.5 ms pulses, 30 seconds) and then rats were dosed i.v. with experimental compound (10 mg/kg mu7E9, 300 μg/kg BIBN4096BS or PBS 0.01% Tween 20). Additional electrical stimulations were done at 5 (BIBN4096BS), 30, 60, 90 and 120 minutes after dosing. All data was recorded using chart software (ADInstruments).
The purpose of this experiment was to determine if the anti CGRP antibody could still block electrically stimulated MMA dilation 7 days after dosing. Preparation of the rats was identical to the above described acute experiment (Example 6) with the following exceptions. […] It was impossible to establish a baseline dilation response to electrical stimulation prior to dosing as in the acute experiment so the antibody groups were compared to dilation of the MMA in a vehicle (PBS, 0.01% Tween 20) dosed control group. After the rats were allowed to rest for no less than 45 minutes the dura was electrically stimulated at 30 minute intervals. Stimulations were at 2.5V, 5V, 10V, 15V and 20V, all at 10 Hz, 0.5 ms pulses for 30 seconds.

[2] = tested on: CGRP activity (skin blood flow after saphenous nerve stimulation); test: Skin vasodilatation induced by stimulation of rat saphenous nerve; assay type: in vivo; conditions: for blood flow increase stimulated by electronic pulses on saphenous nerve: compared to vehicle
Protocol: To test antagonist activity of anti-CGRP antibodies, effect of the antibodies on skin vasodilatation by stimulation of rat saphenous nerve was tested using a rat model described previously. Escott et al., Br. J. Pharmacol. 110:772-776, 1993. In this rat model, electrical stimulation of saphenous nerve induces release of CGRP from nerve endings, resulting in an increase in skin blood flow. Blood flow in the foot skin of male Sprague Dawley rats (170-300 g, from Charles River Hollister) was measured after saphenous nerve stimulation. Rats were maintained under anesthesia with 2% isoflurane. Bretylium tosylate (30 mg/kg, administered i.v.) was given at the beginning of the experiment to minimize vasoconstriction due to the concomitant stimulation of sympathetic fibers of the saphenous nerve. Body temperature was maintained at 37° C. by the use of a rectal probe thermostatically connected to a temperature controlled heating pad. Compounds including antibodies, positive control (CGRP 8-37), and vehicle (PBS, 0.01% Tween 20) were given intravenously through the right femoral vein, except for the experiment shown in FIG. 3, the test compound and the control were injected through tail vein, and for experiments shown in FIGS. 2A and 2B, antibodies 4901 and 7D11 were injected intraperitoneally (IP). Positive control compound CGRP 8-37 (vasodilatation antagonist), due to its short half-life, was given 3-5 min before nerve stimulation at 400 nmol/kg (200 μl). Tan et al., Clin. Sci. 89:656-73, 1995. The antibodies were given in different doses (1 mg/kg, 2.5 mg/kg, 5 mg/kg, 10 mg/kg, and 25 mg/kg).
For experiments shown in FIGS. 2A and 2B, antibody 4901 (25 mg/kg), antibody 7D11 (25 mg/kg), or vehicle control (PBS with 0.01% Tween 20) was administered intraperitoneally (IP) 72 hours before the electrical pulse stimulation. For experiment shown in FIG. 3, antibody 4901 (1 mg/kg, 2.5 mg/kg, 5 mg/kg, or 25 mg/kg) or vehicle control (PBS with 0.01% Tween 20) was administered intravenously 24 hours before the electrical pulse stimulation. After administration of the antibodies or vehicle control, the saphenous nerve of the right hindlimb was exposed surgically, cut proximally and covered with plastic wrap to prevent drying. A laser Doppler probe was placed over the medio-dorsal side of the hindpaw skin, which is the region innervated by the saphenous nerve. Skin blood flow, measured as blood cell flux, was monitored with a laser Doppler flow meter. When a stable base-line flux (less than 5% variation) was established for at least 5 min, the nerve was placed over platinum bipolar electrodes and electrically stimulated with 60 pulses (2 Hz, 10 V, 1 ms, for 30 sec) and then again 20 minutes later. Cumulative change in skin blood flow was estimated by the area under the flux-time curve (AUC, which is equal to change in flux multiplied by change in time) for each flux response to electrical pulse stimulation. The average of the blood flow response to the two stimulations was taken. Animals were kept under anesthesia for a period of one to three hours.
For experiments shown in FIGS. 4A and 4B, saphenous nerve was exposed surgically before antibody administration. The saphenous nerve of the right hindlimb was exposed surgically, cut proximally and covered with plastic wrap to prevent drying. […] Skin blood flow, measured as blood cell flux, was monitored with a laser Doppler flow meter. […]

rat α-CGRP = target: T1, rat α-CGRP (Rattus norvegicus, UniProt P01256); test: Biacore affinity of antibody G1 and variant Fabs to rat α-CGRP; assay type: binding; conditions: 37° C.; Fab; screening mode unless underlined
T1 construct: 1-37 of rat α-CGRP (WT); purchased GenScript Corporation or Global Peptide Services (custom order); host or cells: synthetic peptide
T1 sequence (P01256 83-119 limits assumed): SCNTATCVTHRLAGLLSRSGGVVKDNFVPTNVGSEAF
Protocol: Biacore assay for affinity determination. […] All Biacore assays were conducted in HBS-EP running buffer (10 mM HEPES pH 7.4, 150 mM NaCl, 3 mM EDTA, 0.005% v/v polysorbate P20). CGRP surfaces were prepared by diluting the N-biotinylated CGRP to a concentration of less than 0.001 mg/mL into HBS-EP buffer and injecting it across the SA sensor chip using variable contact times. Low capacity surfaces, corresponding to capture levels <50 response units (RU) were used for high-resolution kinetic studies, whereas high capacity surfaces (about 800 RU of captured CGRP) were used for concentration studies, screening, and solution affinity determinations. […] Samples were typically injected for 1 minute at 100 μL/min and dissociation times of at least 10 minutes were allowed. After each binding cycle, surfaces were regenerated with 25 mM NaOH in 25% v/v ethanol, which was tolerated over hundreds of cycles. […]
High-resolution analysis of binding interactions with extremely slow offrates. […] The association rate constant (kon) was determined by injecting a 2-fold titration series (in duplicate) spanning 550 nM-1 nM for 30 sec at 100 uL/min and allowing only a 30 sec dissociation phase. The dissociation rate constant (koff) was determined by injecting three concentrations (high, medium, and low) of the same titration series in duplicate for 30 sec and allowing a 2-hour dissociation phase. […]

[3] = 900 mg group (n = 85), Change from Baseline to Month 1
[4] = 900 mg group (n = 85), Change from Baseline to Month 2
[5] = 900 mg group (n = 85), Change from Baseline to Month 3
[6] = 675/225 mg group (n = 87), Change from Baseline to Month 1
[7] = 675/225 mg group (n = 87), Change from Baseline to Month 2
[8] = 675/225 mg group (n = 87), Change from Baseline to Month 3

EC50 at 24 hours (dose required for 50% maximal effect) ([2]; i.v. 24 hours before stimulation, curve fit): 1.3 mg/kg | EC50 at 7 days (dose required for 50% maximal effect) ([2]; i.v. 7 days before stimulation, curve fit): 0.8 mg/kg
Molecule: G1: anti-CGRP antagonist antibody produced by expression vectors ATCC PTA-6867 and PTA-6866; VH SEQ ID NO:1, VL SEQ ID NO:2; modified human IgG2 [Clone G1]
Days using acute medications, change from baseline, mean (SE) (chronic migraine; [3]): −5.4 (0.7)** Days | Headache hours, change from baseline, mean (SE) (chronic migraine; [3]): −56.8 (7.3)^+ hours | M/S Headache Days (days with moderate to severe headaches), change from baseline, mean (SE) (chronic migraine; [3]): −5.7 (0.6)^+ Days | Migraine Days, change from baseline, mean (SE) (chronic migraine; [3]): −6.3 (0.7)^+ Days | Days using acute medications, change from baseline, mean (SE) (chronic migraine; [4]): −5.8 (0.7) Days | Headache hours, change from baseline, mean (SE) (chronic migraine; [4]): −66.2 (8.1)^+ hours | M/S Headache Days (days with moderate to severe headaches), change from baseline, mean (SE) (chronic migraine; [4]): −5.9 (0.6) Days | Migraine Days, change from baseline, mean (SE) (chronic migraine; [4]): −6.7 (0.7)^ Days | Headache hours, change from baseline, mean (SE) (chronic migraine; [5]): −67.5 (8.6)** hours | Migraine Days, change from baseline, mean (SE) (chronic migraine; [5]): −7.1 (0.8)* Days | Subjects with >50% Decrease in M/S Headache days (chronic migraine; 900 mg group, Month 1): 47 (55%)^+ N (%) | Subjects with >75% Decrease in M/S Headache days (chronic migraine; 900 mg group, Month 1): 28 (33%)^+ N (%) | Subjects with >50% Decrease in M/S Headache days (chronic migraine; 900 mg group, Month 2): 47 (55%)* N (%) | Subjects with >75% Decrease in M/S Headache days (chronic migraine; 900 mg group, Month 2): 26 (31%) N (%) | Subjects with >50% Decrease in M/S Headache days (chronic migraine; 900 mg group, Month 3): 47 (55%)^+ N (%) | Subjects with >75% Decrease in M/S Headache days (chronic migraine; 900 mg group, Month 3): 27 (32%)* N (%) | Days using acute medications, change from baseline, mean (SE) (chronic migraine; [6]): −5.3 (0.7)* Days | Headache hours, change from baseline, mean (SE) (chronic migraine; [6]): −44.1 (7.3)** hours | M/S Headache Days (days with moderate to severe headaches), change from baseline, mean (SE) (chronic migraine; [6]): −4.9 (0.6)** Days | Days using acute medications, change from baseline, mean (SE) (chronic migraine; [7]): −6.6 (0.7)* Days | Headache hours, change from baseline, mean (SE) (chronic migraine; [7]): −58.3 (8.1)* hours | M/S Headache Days (days with moderate to severe headaches), change from baseline, mean (SE) (chronic migraine; [7]): −5.8 (0.6) Days | Migraine Days, change from baseline, mean (SE) (chronic migraine; [7]): −6.6 (0.7) Days | Days using acute medications, change from baseline, mean (SE) (chronic migraine; [8]): −6.6 (0.7)* Days | Headache hours, change from baseline, mean (SE) (chronic migraine; [8]): −59.8 (8.6)* hours | M/S Headache Days (days with moderate to severe headaches), change from baseline, mean (SE) (chronic migraine; [8]): −6.0 (0.7)* Days | Migraine Days, change from baseline, mean (SE) (chronic migraine; [8]): −6.8 (0.8) Days | Subjects with >50% Decrease in M/S Headache days (chronic migraine; 675/225 mg group, Month 1): 36 (41%)* N (%) | Subjects with >75% Decrease in M/S Headache days (chronic migraine; 675/225 mg group, Month 1): 19 (22%)** N (%) | Subjects with >50% Decrease in M/S Headache days (chronic migraine; 675/225 mg group, Month 2): 42 (48%) N (%) | Subjects with >75% Decrease in M/S Headache days (chronic migraine; 675/225 mg group, Month 2): 26 (30%)* N (%) | Subjects with >50% Decrease in M/S Headache days (chronic migraine; 675/225 mg group, Month 3): 46 (53%)** N (%) | Subjects with >75% Decrease in M/S Headache days (chronic migraine; 675/225 mg group, Month 3): 25 (29%)* N (%) | Average number of headache hours at visits 2, 3 and 4 (chronic migraine; both treatment groups vs placebo): significant decrease | number of headache hours in subjects using prevention medications (chronic migraine; e.g. topiramate and amitriptyline or propranolol, relative to a placebo group): significant decrease | MMA dilation evoked by electrical stimulation ([1]; 10 mg/kg and 3 mg/kg i.v., 7 days prior, 10 to 20 volts, vs vehicle): significantly blocked | blood flow increase stimulated by electronic pulses on saphenous nerve ([2]; 1 mg/kg i.v., stimulation at 90 min): significantly inhibited | blood flow increase stimulated by electronic pulses on saphenous nerve ([2]; 10 mg/kg i.v., stimulation at 90 and 120 minutes): significantly inhibited | blood flow increases in the dorso-medial hindpaw skin evoked by saphenous nerve stimulation ([2]; 10 mg/kg or 3 mg/kg i.v., 24 hours or 7 days prior to stimulation, vs vehicle): significantly inhibited

Molecule: NCCCC[C@H](NC(=O)[C@@H](Cc1cc(Br)c(O)c(Br)c1)NC(=O)N1CCC(N2Cc3ccccc3NC2=O)CC1)C(=O)N1CCN(c2ccncc2)CC1 [BIBN4096BS]
time after dosing within which MMA dilation is blocked ([1]; 300 μg/kg i.v.): ≤ 5 min | time by which the effect has completely disappeared ([1]; 300 μg/kg i.v.): ≤ 90 min | MMA dilation evoked by electrical field stimulation ([1]; 300 μg/kg i.v., acute): blocks

α-rat koff (rat α-CGRP): 0.0176 s⁻¹
B1: M84: G1 variant: L1 R28N T30V; L2 A51H L56T; H2 E54N A57N; HC-FW3 L99T A100V (antibody, V domains shown)
VH: EVQLVESGGGLVQPGGSLRLSCAASGFTFSNYWISWVRQAPGKGLEWVAEIRSNSDNSATHYAEAVKGRFTISRDNAKNSLYLQMNSLRAEDTAVYYCTVYFDYGLAIQNYWGQGTLVTVSS
VL: EIVLTQSPATLSLSPGERATLSCKASKNVVTYVSWYQQKPGQAPRLLIYGHSNRYTGIPARFSGSGSGTDFTLTISSLEPEDFAVYYCSQSYNYPYTFGQGTKLEIK
